Measurements taken from ChEMBL document CHEMBL1201861, “Genomics of Drug Sensitity in Cancer screening data, Wellcome Trust Sanger Institute”.

Assays:
Assay in all cases: cells
COR-L88 = assay type: functional, cell-based, Homo sapiens; conditions: Homo sapiens, COR-L88;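 note: growth inhibition of COR-L88 cells, read out with a cell viability assay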
Description: SANGER: Inhibition of human COR-L88 cell growth in a cell viability assay.

CTB-1 = assay type: functional, cell-based, Homo sapiens; conditions: Homo sapiens, CTB-1
Description: SANGER: Inhibition of human CTB-1 cell growth in a cell viability assay.

CW-2 = assay type: functional, cell-based, Homo sapiens; conditions: Homo sapiens, CW-2;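 note: growth inhibition of CW-2 cells, read out by a cell viability assay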
Description: SANGER: Inhibition of human CW-2 cell growth in a cell viability assay.

DSH1 = assay type: functional, cell-based, Homo sapiens; conditions: Homo sapiens, DSH1;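 note: growth inhibition of human DSH1 cells, measured with a cell viability readout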
Description: SANGER: Inhibition of human DSH1 cell growth in a cell viability assay.

ES3 = assay type: functional, cell-based, Homo sapiens; conditions: Homo sapiens, ES3;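 note: growth inhibition of ES3 cells, read out with a cell viability assay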
Description: SANGER: Inhibition of human ES3 cell growth in a cell viability assay.

EW-11 = assay type: functional, cell-based, Homo sapiens; conditions: Homo sapiens, EW-11;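 note: growth inhibition of human EW-11 cells, measured with a cell viability assay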
Description: SANGER: Inhibition of human EW-11 cell growth in a cell viability assay.

EW-13 = assay type: functional, cell-based, Homo sapiens; conditions: Homo sapiens, EW-13;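 note: growth inhibition of EW-13 cells, read out with a cell viability assay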
Description: SANGER: Inhibition of human EW-13 cell growth in a cell viability assay.

GAK = assay type: functional, cell-based, Homo sapiens; conditions: Homo sapiens, GAK;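 note: cell growth inhibition read out by a cell viability assay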
Description: SANGER: Inhibition of human GAK cell growth in a cell viability assay.

HAL-01 = assay type: functional, cell-based, Homo sapiens; conditions: Homo sapiens, HAL-01;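 note: growth inhibition of human HAL-01 cells, read out with a cell viability assay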
Description: SANGER: Inhibition of human HAL-01 cell growth in a cell viability assay.

HCC 2998 = assay type: functional, cell-based, Homo sapiens; conditions: Homo sapiens, HCC 2998;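 note: growth inhibition of human HCC2998 cells, measured with a cell viability read-out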
Description: SANGER: Inhibition of human HCC2998 cell growth in a cell viability assay.

HD-MY-Z = assay type: functional, cell-based, Homo sapiens; conditions: Homo sapiens, HD-MY-Z;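 note: growth inhibition of HD-MY-Z cells, read out with a cell viability assay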
Description: SANGER: Inhibition of human HD-MY-Z cell growth in a cell viability assay.

HH = assay type: functional, cell-based, Homo sapiens; conditions: Homo sapiens, HH
Description: SANGER: Inhibition of human HH cell growth in a cell viability assay.

HL-60 = assay type: functional, cell-based, Homo sapiens; conditions: Homo sapiens, HL-60;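 note: growth inhibition of human HL-60 cells, read out with a cell viability assay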
Description: SANGER: Inhibition of human HL-60 cell growth in a cell viability assay.

JAR = assay type: functional, cell-based, Homo sapiens; conditions: Homo sapiens, JAR;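 note: growth inhibition of human JAR cells determined with a cell viability assay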
Description: SANGER: Inhibition of human JAR cell growth in a cell viability assay.

K562 = assay type: functional, cell-based, Homo sapiens; conditions: Homo sapiens, K562
Description: SANGER: Inhibition of human K-562 cell growth in a cell viability assay.

KM12 = assay type: functional, cell-based, Homo sapiens; conditions: Homo sapiens, KM12;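 note: KM12 cell growth inhibition, read out with a cell viability assay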
Description: SANGER: Inhibition of human KM12 cell growth in a cell viability assay.

KU812 cell line = assay type: functional, cell-based, Homo sapiens; conditions: Homo sapiens, KU812;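 note: growth inhibition of KU812 cells, read out with a cell viability assay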
Description: SANGER: Inhibition of human KU812 cell growth in a cell viability assay.

KURAMOCHI = assay type: functional, cell-based, Homo sapiens; conditions: Homo sapiens, KURAMOCHI;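 note: growth inhibition of KURAMOCHI cells, read out with a cell viability assay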
Description: SANGER: Inhibition of human KURAMOCHI cell growth in a cell viability assay.

LAMA-84 = assay type: functional, cell-based, Homo sapiens; conditions: Homo sapiens, LAMA-84;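 note: growth inhibition of LAMA-84 cells, read out with a cell viability assay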
Description: SANGER: Inhibition of human LAMA-84 cell growth in a cell viability assay.

LC-2-ad = assay type: functional, cell-based, Homo sapiens; conditions: Homo sapiens, LC-2-ad;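 note: growth inhibition of human LC-2-ad cells, read out with a cell viability assay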
Description: SANGER: Inhibition of human LC-2-ad cell growth in a cell viability assay.

LS-123 = assay type: functional, cell-based, Homo sapiens; conditions: Homo sapiens, LS-123
Description: SANGER: Inhibition of human LS-123 cell growth in a cell viability assay.

LS-513 = assay type: functional, cell-based, Homo sapiens; conditions: Homo sapiens, LS-513
Description: SANGER: Inhibition of human LS-513 cell growth in a cell viability assay.

MC116 = assay type: functional, cell-based, Homo sapiens; conditions: Homo sapiens, MC116;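 note: growth inhibition of MC116 cells, read out with a cell viability assay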
Description: SANGER: Inhibition of human MC116 cell growth in a cell viability assay.

MFM-223 = assay type: functional, cell-based, Homo sapiens; conditions: Homo sapiens, MFM-223
Description: SANGER: Inhibition of human MFM-223 cell growth in a cell viability assay.

MLMA = assay type: functional, cell-based, Homo sapiens; conditions: Homo sapiens, MLMA;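 note: growth inhibition of MLMA cells (human), determined through a cell viability readout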
Description: SANGER: Inhibition of human MLMA cell growth in a cell viability assay.

MS-1 = assay type: functional, cell-based, Homo sapiens; conditions: Homo sapiens, MS-1;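 note: growth inhibition of MS-1 cells, read out by cell viability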
Description: SANGER: Inhibition of human MS-1 cell growth in a cell viability assay.

NB17 = assay type: functional, cell-based, Homo sapiens; conditions: Homo sapiens, NB17;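 note: growth inhibition of NB17 cells, read out with a cell viability assay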
Description: SANGER: Inhibition of human NB17 cell growth in a cell viability assay.

NCI-H1092 = assay type: functional, cell-based, Homo sapiens; conditions: Homo sapiens, NCI-H1092;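 note: cell growth inhibition measured with a cell viability assay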
Description: SANGER: Inhibition of human NCI-H1092 cell growth in a cell viability assay.

NCI-H69 = assay type: functional, cell-based, Homo sapiens; conditions: Homo sapiens, NCI-H69;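 note: growth inhibition of the cell line, read out with a cell viability assay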
Description: SANGER: Inhibition of human NCI-H69 cell growth in a cell viability assay.

NH-12 = assay type: functional, cell-based, Homo sapiens; conditions: Homo sapiens, NH-12;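 note: growth inhibition of NH-12 cells, read out with a cell viability assay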
Description: SANGER: Inhibition of human NH-12 cell growth in a cell viability assay.

OCUB-M = assay type: functional, cell-based, Homo sapiens; conditions: Homo sapiens, OCUB-M;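 note: growth inhibition of the cancer cell line, read out through a cell viability assay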
Description: SANGER: Inhibition of human OCUB-M cell growth in a cell viability assay.

ONS-76 = assay type: functional, cell-based, Homo sapiens; conditions: Homo sapiens, ONS-76;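 note: growth inhibition of human ONS-76 cells, read out with a cell viability assay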
Description: SANGER: Inhibition of human ONS-76 cell growth in a cell viability assay.

OS-RC-2 = assay type: functional, cell-based, Homo sapiens; conditions: Homo sapiens, OS-RC-2;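 note: growth inhibition of human OS-RC-2 cells, measured by a cell viability assay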
Description: SANGER: Inhibition of human OS-RC-2 cell growth in a cell viability assay.

P30-OHK = assay type: functional, cell-based, Homo sapiens; conditions: Homo sapiens, P30-OHK;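 note: growth inhibition of the P30-OHK cell line, read out with a cell viability assay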
Description: SANGER: Inhibition of human P30-OHK cell growth in a cell viability assay.

QIMR-WIL = assay type: functional, cell-based, Homo sapiens; conditions: Homo sapiens, QIMR-WIL;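 note: growth inhibition of QIMR-WIL cells, read out with a cell viability assay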
Description: SANGER: Inhibition of human QIMR-WIL cell growth in a cell viability assay.

SBC-1 = assay type: functional, cell-based, Homo sapiens; conditions: Homo sapiens, SBC-1;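 note: cell viability assay measuring growth inhibition of the SBC-1 cell line, IC50 being the concentration that halves growth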
Description: SANGER: Inhibition of human SBC-1 cell growth in a cell viability assay.

SK-MEL-2 = assay type: functional, cell-based, Homo sapiens; conditions: Homo sapiens, SK-MEL-2;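 note: growth inhibition of human SK-MEL-2 cells measured with a cell viability assay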
Description: SANGER: Inhibition of human SK-MEL-2 cell growth in a cell viability assay.

SK-UT-1 = assay type: functional, cell-based, Homo sapiens; conditions: Homo sapiens, SK-UT-1;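 note: growth inhibition of SK-UT-1 cells, measured by a cell viability assay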
Description: SANGER: Inhibition of human SK-UT-1 cell growth in a cell viability assay.

SNU-C2B = assay type: functional, cell-based, Homo sapiens; conditions: Homo sapiens, SNU-C2B;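 note: cell viability readout used to measure compound-driven suppression of SNU-C2B cell proliferation, IC50 marking half-maximal growth inhibition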
Description: SANGER: Inhibition of human SNU-C2B cell growth in a cell viability assay.

SW982 = assay type: functional, cell-based, Homo sapiens; conditions: Homo sapiens, SW982;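 note: growth inhibition of SW982 cells, read out with a cell viability assay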
Description: SANGER: Inhibition of human SW982 cell growth in a cell viability assay.

8-MG-BA = assay type: functional, cell-based, Homo sapiens; conditions: Homo sapiens, 8-MG-BA;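 note: growth inhibition of 8-MG-BA cells, read out with a cell viability assay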
Description: SANGER: Inhibition of human 8-MG-BA cell growth in a cell viability assay.

A388 = assay type: functional, cell-based, Homo sapiens; conditions: Homo sapiens, A388;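 note: growth inhibition of human A388 cells, read out with a cell viability assay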
Description: SANGER: Inhibition of human A388 cell growth in a cell viability assay.

TGBC1TKB = assay type: functional, cell-based, Homo sapiens; conditions: Homo sapiens, TGBC1TKB;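 note: growth inhibition of TGBC1TKB cells, read out by a cell viability assay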
Description: SANGER: Inhibition of human TGBC1TKB cell growth in a cell viability assay.

TGW = assay type: functional, cell-based, Homo sapiens; conditions: Homo sapiens, TGW;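 note: growth inhibition of human TGW cells, read out with a cell viability assay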
Description: SANGER: Inhibition of human TGW cell growth in a cell viability assay.

U-87 MG = assay type: functional, cell-based, Homo sapiens, U-87MG ATCC; conditions: Homo sapiens, U-87 MG;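 note: growth inhibition of the cells measured with a viability assay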
Description: SANGER: Inhibition of human U-87-MG cell growth in a cell viability assay.

CGTH-W-1 = assay type: functional, cell-based, Homo sapiens; conditions: Homo sapiens, CGTH-W-1;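 note: growth inhibition of human CGTH-W-1 cells measured by cell viability assay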
Description: SANGER: Inhibition of human CGTH-W-1 cell growth in a cell viability assay.

COLO-668 = assay type: functional, cell-based, Homo sapiens; conditions: Homo sapiens, COLO-668
Description: SANGER: Inhibition of human COLO-668 cell growth in a cell viability assay.

In the case of `CC(C)CCN1c2nc(Nc3cc(F)c(O)c(F)c3)ncc2N(C)C(=O)C1C` (stereo unspecified), the IC50 (COR-L88) is reported as > 5000 nM, the IC50 (CTB-1) is reported as 1450 nM and the IC50 (CW-2) is reported as > 5000 nM. For the same molecule, the IC50 (DSH1) was > 5000 nM, the IC50 (ES3) was > 5000 nM and the IC50 (EW-11) was 3410 nM. The IC50 (EW-13) was > 5000 nM, the IC50 (GAK) was > 5000 nM and the IC50 (HAL-01) was > 5000 nM. The IC50 (HCC 2998) was > 5000 nM, the IC50 (HD-MY-Z) was 3370 nM and the IC50 (HH) was 2800 nM. For the same molecule, the IC50 (HL-60) was 884 nM, the IC50 (JAR) was > 5000 nM and the IC50 (K562) was > 5000 nM. The IC50 (KM12) was 3120 nM, the IC50 (KU812 cell line) was 626 nM and the IC50 (KURAMOCHI) was > 5000 nM. The IC50 (LAMA-84) was 1130 nM, the IC50 (LC-2-ad) was > 5000 nM and the IC50 (LS-123) was > 5000 nM. The IC50 (LS-513) was > 5000 nM, the IC50 (MC116) was > 5000 nM and the IC50 (MFM-223) was > 5000 nM. For the same molecule, the IC50 (MLMA) was > 5000 nM, the IC50 (MS-1) was > 5000 nM and the IC50 (NB17) was > 5000 nM. For the same molecule, the IC50 (NCI-H1092) was > 5000 nM, the IC50 (NCI-H69) was 2720 nM and the IC50 (NH-12) was 3110 nM. The IC50 (OCUB-M) was > 5000 nM, the IC50 (ONS-76) was > 5000 nM and the IC50 (OS-RC-2) was > 5000 nM. The IC50 (P30-OHK) was > 5000 nM, the IC50 (QIMR-WIL) was 2080 nM and the IC50 (SBC-1) was 695 nM. The IC50 (SK-MEL-2) was > 5000 nM, the IC50 (SK-UT-1) was > 5000 nM and the IC50 (SNU-C2B) was 3390 nM. For the same molecule, the IC50 (SW982) was > 5000 nM, the IC50 (8-MG-BA) was 2230 nM and the IC50 (A388) was > 5000 nM. The IC50 (TGBC1TKB) was > 5000 nM, the IC50 (TGW) was 1050 nM and the IC50 (U-87 MG) was > 5000 nM. The IC50 (CGTH-W-1) was 3940 nM and the IC50 (COLO-668) was > 5000 nM.

With `COc1cc2c(Nc3ccc(NC(=O)c4ccccc4)cc3)ncnc2cc1OCCCN1CCOCC1` the IC50 (COR-L88) was > 4000 nM, the IC50 (CTB-1) was 1670 nM and the IC50 (CW-2) was > 4000 nM. The IC50 (DSH1) was > 4000 nM, the IC50 (ES3) was 473 nM and the IC50 (EW-11) was > 4000 nM. For the same molecule, the IC50 (EW-13) was > 4000 nM, the IC50 (GAK) was > 4000 nM and the IC50 (HAL-01) was > 4000 nM. For the same molecule, the IC50 (HCC 2998) was > 4000 nM, the IC50 (HD-MY-Z) was > 4000 nM and the IC50 (HH) was > 4000 nM. For the same molecule, the IC50 (HL-60) was 2590 nM, the IC50 (JAR) was > 4000 nM and the IC50 (K562) was > 4000 nM. For the same molecule, the IC50 (KM12) was > 4000 nM, the IC50 (KU812 cell line) was > 4000 nM and the IC50 (KURAMOCHI) was > 4000 nM. The IC50 (LAMA-84) was 1760 nM, the IC50 (LC-2-ad) was > 4000 nM and the IC50 (LS-123) was > 4000 nM. The IC50 (LS-513) was > 4000 nM, the IC50 (MC116) was > 4000 nM and the IC50 (MFM-223) was > 4000 nM. For the same molecule, the IC50 (MLMA) was > 4000 nM, the IC50 (MS-1) was > 4000 nM and the IC50 (NB17) was > 4000 nM. The IC50 (NCI-H1092) was > 4000 nM, the IC50 (NCI-H69) was > 4000 nM and the IC50 (NH-12) was 3280 nM. For the same molecule, the IC50 (OCUB-M) was 2250 nM, the IC50 (ONS-76) was > 4000 nM and the IC50 (OS-RC-2) was > 4000 nM. The IC50 (P30-OHK) was > 4000 nM, the IC50 (QIMR-WIL) was 2060 nM and the IC50 (SBC-1) was 1040 nM. The IC50 (SK-MEL-2) was > 4000 nM, the IC50 (SK-UT-1) was 1820 nM and the IC50 (SNU-C2B) was > 4000 nM. For the same molecule, the IC50 (SW982) was > 4000 nM, the IC50 (8-MG-BA) was > 4000 nM and the IC50 (A388) was 3500 nM. The IC50 (TGBC1TKB) was > 4000 nM, the IC50 (TGW) was > 4000 nM and the IC50 (U-87 MG) was > 4000 nM. For the same molecule, the IC50 (CGTH-W-1) was 2620 nM and the IC50 (COLO-668) was > 4000 nM.

With `CC1(C)CNc2cc(NC(=O)c3cccnc3NCc3ccncc3)ccc21` [MOTESANIB] the IC50 (COR-L88) was > 2000 nM, the IC50 (CTB-1) was > 2000 nM and the IC50 (CW-2) was > 2000 nM. For the same molecule, the IC50 (DSH1) was > 2000 nM, the IC50 (ES3) was > 2000 nM and the IC50 (EW-11) was > 2000 nM. For the same molecule, the IC50 (EW-13) was > 2000 nM, the IC50 (GAK) was > 2000 nM and the IC50 (HAL-01) was > 2000 nM. For the same molecule, the IC50 (HCC 2998) was > 2000 nM, the IC50 (HD-MY-Z) was > 2000 nM and the IC50 (HH) was > 2000 nM. The IC50 (HL-60) was > 2000 nM, the IC50 (JAR) was > 2000 nM and the IC50 (K562) was > 2000 nM. For the same molecule, the IC50 (KM12) was > 2000 nM, the IC50 (KU812 cell line) was > 2000 nM and the IC50 (KURAMOCHI) was > 2000 nM. For the same molecule, the IC50 (LAMA-84) was > 2000 nM, the IC50 (LC-2-ad) was > 2000 nM and the IC50 (LS-123) was > 2000 nM. For the same molecule, the IC50 (LS-513) was > 2000 nM, the IC50 (MC116) was > 2000 nM and the IC50 (MFM-223) was > 2000 nM. The IC50 (MLMA) was > 2000 nM, the IC50 (MS-1) was > 2000 nM and the IC50 (NB17) was > 2000 nM. The IC50 (NCI-H1092) was > 2000 nM, the IC50 (NCI-H69) was > 2000 nM and the IC50 (NH-12) was > 2000 nM. For the same molecule, the IC50 (OCUB-M) was > 2000 nM, the IC50 (ONS-76) was > 2000 nM and the IC50 (OS-RC-2) was > 2000 nM. For the same molecule, the IC50 (P30-OHK) was > 2000 nM, the IC50 (QIMR-WIL) was > 2000 nM and the IC50 (SBC-1) was > 2000 nM. The IC50 (SK-MEL-2) was > 2000 nM, the IC50 (SK-UT-1) was > 2000 nM and the IC50 (SNU-C2B) was > 2000 nM. The IC50 (SW982) was > 2000 nM, the IC50 (8-MG-BA) was > 2000 nM and the IC50 (A388) was > 2000 nM. For the same molecule, the IC50 (TGBC1TKB) was > 2000 nM, the IC50 (TGW) was > 2000 nM and the IC50 (U-87 MG) was > 2000 nM. For the same molecule, the IC50 (CGTH-W-1) was 670 nM and the IC50 (COLO-668) was > 2000 nM.
